{
  "source": "ChEMBL document CHEMBL1142908",
  "about": "“Selective L-nitroargininylaminopyrrolidine and L-nitroargininylaminopiperidine neuronal nitric oxide synthase inhibitors” (Bioorg Med Chem, 2007)",
  "note": "pKi: −log10 of the molar value. Residues, ends and D or L forms follow the SMILES beside them.",
  "data": [
    {"molecular_target": "Nitric oxide synthase 1 (Rattus norvegicus, UniProt P29476)", "sequence (P29476 whole entry)": "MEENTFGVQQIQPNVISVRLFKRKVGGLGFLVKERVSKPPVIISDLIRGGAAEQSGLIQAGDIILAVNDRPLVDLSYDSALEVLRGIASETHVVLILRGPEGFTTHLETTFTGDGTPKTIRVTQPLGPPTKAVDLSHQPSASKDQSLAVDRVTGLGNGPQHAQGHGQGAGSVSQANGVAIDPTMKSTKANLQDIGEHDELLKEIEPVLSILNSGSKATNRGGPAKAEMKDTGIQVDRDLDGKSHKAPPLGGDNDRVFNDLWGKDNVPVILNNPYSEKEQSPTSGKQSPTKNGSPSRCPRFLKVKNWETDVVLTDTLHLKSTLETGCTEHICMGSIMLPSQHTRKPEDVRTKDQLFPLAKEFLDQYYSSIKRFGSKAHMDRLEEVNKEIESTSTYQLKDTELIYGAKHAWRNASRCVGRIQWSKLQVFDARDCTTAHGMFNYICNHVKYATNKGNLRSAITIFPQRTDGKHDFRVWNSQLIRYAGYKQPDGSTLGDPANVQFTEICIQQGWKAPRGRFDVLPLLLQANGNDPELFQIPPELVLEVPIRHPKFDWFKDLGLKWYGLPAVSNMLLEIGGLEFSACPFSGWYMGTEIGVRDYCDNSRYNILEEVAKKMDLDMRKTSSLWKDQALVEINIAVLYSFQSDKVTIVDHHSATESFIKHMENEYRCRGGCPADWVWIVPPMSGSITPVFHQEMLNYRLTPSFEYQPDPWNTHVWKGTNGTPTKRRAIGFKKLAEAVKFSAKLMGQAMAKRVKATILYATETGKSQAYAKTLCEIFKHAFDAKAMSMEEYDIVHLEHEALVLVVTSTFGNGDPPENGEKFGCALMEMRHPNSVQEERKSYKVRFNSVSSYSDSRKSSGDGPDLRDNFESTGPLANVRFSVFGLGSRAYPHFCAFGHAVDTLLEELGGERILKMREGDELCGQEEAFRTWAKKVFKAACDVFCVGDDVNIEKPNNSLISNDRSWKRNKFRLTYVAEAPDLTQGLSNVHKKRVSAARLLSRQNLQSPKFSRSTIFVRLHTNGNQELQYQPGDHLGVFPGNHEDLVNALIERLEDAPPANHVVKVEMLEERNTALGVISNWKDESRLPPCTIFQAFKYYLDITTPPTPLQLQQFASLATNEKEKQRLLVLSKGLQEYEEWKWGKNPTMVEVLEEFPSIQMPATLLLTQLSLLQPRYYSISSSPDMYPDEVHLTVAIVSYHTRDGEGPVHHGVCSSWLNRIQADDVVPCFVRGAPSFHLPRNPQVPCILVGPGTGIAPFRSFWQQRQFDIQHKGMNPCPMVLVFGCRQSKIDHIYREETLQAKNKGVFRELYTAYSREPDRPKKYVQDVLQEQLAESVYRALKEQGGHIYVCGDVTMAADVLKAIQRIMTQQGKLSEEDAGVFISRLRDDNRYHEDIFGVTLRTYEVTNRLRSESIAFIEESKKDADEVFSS", "test": "Inhibition of rat recombinant nNOS expressed in Escherichia coli assessed as nitric oxide production by hemoglobin capture assay", "values": [
      {"smiles": "NC(=N[N+](=O)[O-])NCCC[C@H](N)C(=O)N[C@@H]1CCNC1", "pKi": 6.66},
      {"smiles": "CN[C@@H](CCCNC(N)=N[N+](=O)[O-])C(=O)N[C@@H]1CCNC1", "pKi": 5.97},
      {"smiles": "CN[C@@H](CCCNC(=N)N[N+](=O)[O-])C(=O)N[C@H]1CN[C@H](C(N)=O)C1", "pKi": 5.96},
      {"smiles": "NC(=N[N+](=O)[O-])NCCC[C@H](N)C(=O)N[C@@H]1CCCNC1", "pKi": 6.32},
      {"smiles": "NC(=N[N+](=O)[O-])NCCC[C@H](N)C(=O)N[C@H]1CCNC1", "pKi": 5.75},
      {"smiles": "CN[C@@H](CCCNC(N)=N[N+](=O)[O-])C(=O)NC1CCNCC1", "pKi": 5.62},
      {"smiles": "NC(=O)[C@@H]1C[C@@H](NC(=O)[C@@H](N)CCC/N=C(\\N)N[N+](=O)[O-])CN1", "pKi": 6.48},
      {"smiles": "C[C@H](NC(=O)[C@H](CC(N)=O)NC(=O)[C@@H](N)CC(N)=O)C(=O)O", "note": "(H-Asn-Asn-Ala-OH)", "pKi": 6.21},
      {"smiles": "N=C(NCCC[C@H](N)C(=O)NC1CCNCC1)N[N+](=O)[O-]", "pKi": 6.33},
      {"smiles": "CN[C@@H](CCCNC(N)=N[N+](=O)[O-])C(=O)N[C@@H]1CCCNC1", "pKi": 5.65},
      {"smiles": "N=C(NCCC[C@H](N)C(=O)N[C@H]1CCCNC1)N[N+](=O)[O-]", "pKi": 5.12}
    ]},
    {"system": "not listed separately", "test": "Selectivity of rat recombinant nNOS over mouse recombinant iNOS", "values": [
      {"smiles": "CN[C@@H](CCCNC(=N)N[N+](=O)[O-])C(=O)NC1CCNCC1", "Ratio Ki": 216},
      {"smiles": "N=C(NCCC[C@H](N)C(=O)N[C@@H]1CCCNC1)N[N+](=O)[O-]", "Ratio Ki": 188},
      {"smiles": "CN[C@@H](CCCNC(=N)N[N+](=O)[O-])C(=O)N[C@@H]1CCCNC1", "Ratio Ki": 107},
      {"smiles": "N=C(NCCC[C@H](N)C(=O)N[C@@H]1CCNC1)N[N+](=O)[O-]", "Ratio Ki": 250},
      {"smiles": "N=C(NCCC[C@H](N)C(=O)N[C@H]1CCNC1)N[N+](=O)[O-]", "Ratio Ki": 32},
      {"smiles": "CN[C@@H](CCCNC(=N)N[N+](=O)[O-])C(=O)N[C@@H]1CCNC1", "Ratio Ki": 115},
      {"smiles": "CN[C@@H](CCCNC(=N)N[N+](=O)[O-])C(=O)N[C@H]1CN[C@H](C(N)=O)C1", "Ratio Ki": 60},
      {"smiles": "C[C@H](NC(=O)[C@H](CC(N)=O)NC(=O)[C@@H](N)CC(N)=O)C(=O)O", "note": "(H-Asn-Asn-Ala-OH)", "Ratio Ki": 7},
      {"smiles": "N=C(NCCC[C@H](N)C(=O)NC1CCNCC1)N[N+](=O)[O-]", "Ratio Ki": 430},
      {"smiles": "N=C(NCCC[C@H](N)C(=O)N[C@H]1CCCNC1)N[N+](=O)[O-]", "Ratio Ki": 70}
    ]},
    {"system": "not listed separately", "test": "Selectivity of rat recombinant nNOS over bovine recombinant eNOS", "values": [
      {"smiles": "CN[C@@H](CCCNC(=N)N[N+](=O)[O-])C(=O)NC1CCNCC1", "Ratio Ki": 48},
      {"smiles": "N=C(NCCC[C@H](N)C(=O)N[C@@H]1CCCNC1)N[N+](=O)[O-]", "Ratio Ki": 469},
      {"smiles": "CN[C@@H](CCCNC(=N)N[N+](=O)[O-])C(=O)N[C@@H]1CCCNC1", "Ratio Ki": 77},
      {"smiles": "N=C(NCCC[C@H](N)C(=O)N[C@@H]1CCNC1)N[N+](=O)[O-]", "Ratio Ki": 309},
      {"smiles": "N=C(NCCC[C@H](N)C(=O)N[C@H]1CCNC1)N[N+](=O)[O-]", "Ratio Ki": 44},
      {"smiles": "CN[C@@H](CCCNC(=N)N[N+](=O)[O-])C(=O)N[C@@H]1CCNC1", "Ratio Ki": 148},
      {"smiles": "CN[C@@H](CCCNC(=N)N[N+](=O)[O-])C(=O)N[C@H]1CN[C@H](C(N)=O)C1", "Ratio Ki": 266},
      {"smiles": "C[C@H](NC(=O)[C@H](CC(N)=O)NC(=O)[C@@H](N)CC(N)=O)C(=O)O", "note": "(H-Asn-Asn-Ala-OH)", "Ratio Ki": 1.2},
      {"smiles": "N=C(NCCC[C@H](N)C(=O)NC1CCNCC1)N[N+](=O)[O-]", "Ratio Ki": 557},
      {"smiles": "N=C(NCCC[C@H](N)C(=O)N[C@H]1CCCNC1)N[N+](=O)[O-]", "Ratio Ki": 29}
    ]},
    {"molecular_target": "T1, Nitric oxide synthase, inducible (Mus musculus, UniProt P29477)", "T1 sequence (P29477 whole entry)": "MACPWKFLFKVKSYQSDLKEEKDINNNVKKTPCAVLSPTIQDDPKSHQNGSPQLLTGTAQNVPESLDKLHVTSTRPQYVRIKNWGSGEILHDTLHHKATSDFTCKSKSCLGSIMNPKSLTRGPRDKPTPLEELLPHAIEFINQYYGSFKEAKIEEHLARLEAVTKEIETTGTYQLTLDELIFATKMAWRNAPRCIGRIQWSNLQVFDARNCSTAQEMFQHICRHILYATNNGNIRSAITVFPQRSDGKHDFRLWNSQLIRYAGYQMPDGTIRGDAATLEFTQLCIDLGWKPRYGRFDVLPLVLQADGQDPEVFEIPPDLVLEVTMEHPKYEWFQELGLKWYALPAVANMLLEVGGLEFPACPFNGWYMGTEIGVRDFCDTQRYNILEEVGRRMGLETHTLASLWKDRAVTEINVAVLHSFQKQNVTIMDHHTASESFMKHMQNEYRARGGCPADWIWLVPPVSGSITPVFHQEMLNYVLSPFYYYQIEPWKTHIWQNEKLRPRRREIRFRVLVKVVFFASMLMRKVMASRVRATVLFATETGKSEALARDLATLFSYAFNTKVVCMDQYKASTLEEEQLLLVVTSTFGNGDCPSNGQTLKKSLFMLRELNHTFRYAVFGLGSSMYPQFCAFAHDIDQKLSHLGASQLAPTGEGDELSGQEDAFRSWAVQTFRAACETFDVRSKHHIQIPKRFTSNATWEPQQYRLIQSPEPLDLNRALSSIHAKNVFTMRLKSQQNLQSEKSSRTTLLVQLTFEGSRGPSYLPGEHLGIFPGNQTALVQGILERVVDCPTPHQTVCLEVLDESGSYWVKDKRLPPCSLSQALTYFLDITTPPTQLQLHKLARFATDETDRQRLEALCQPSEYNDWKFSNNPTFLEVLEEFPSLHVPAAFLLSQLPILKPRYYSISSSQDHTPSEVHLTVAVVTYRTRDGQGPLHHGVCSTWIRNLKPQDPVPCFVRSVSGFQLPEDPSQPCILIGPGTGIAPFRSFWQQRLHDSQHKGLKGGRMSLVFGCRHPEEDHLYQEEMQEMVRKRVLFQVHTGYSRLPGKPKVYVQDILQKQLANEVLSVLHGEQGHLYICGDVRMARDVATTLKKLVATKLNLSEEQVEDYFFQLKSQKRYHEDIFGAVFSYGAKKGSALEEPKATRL", "test": "Inhibition of mouse recombinant iNOS expressed in Escherichia coli assessed as nitric oxide production by hemoglobin capture assay", "values": [
      {"smiles": "NC(=N[N+](=O)[O-])NCCC[C@H](N)C(=O)N[C@@H]1CCNC1", "pKi": 4.26},
      {"smiles": "CN[C@@H](CCCNC(N)=N[N+](=O)[O-])C(=O)N[C@@H]1CCNC1", "pKi": 3.91},
      {"smiles": "CN[C@@H](CCCNC(=N)N[N+](=O)[O-])C(=O)N[C@H]1CN[C@H](C(N)=O)C1", "pKi": 4.19},
      {"smiles": "NC(=N[N+](=O)[O-])NCCC[C@H](N)C(=O)N[C@@H]1CCCNC1", "pKi": 4.05},
      {"smiles": "NC(=N[N+](=O)[O-])NCCC[C@H](N)C(=O)N[C@H]1CCNC1", "pKi": 4.24},
      {"smiles": "CN[C@@H](CCCNC(N)=N[N+](=O)[O-])C(=O)NC1CCNCC1", "pKi": 3.29},
      {"smiles": "NC(=O)[C@@H]1C[C@@H](NC(=O)[C@@H](N)CCC/N=C(\\N)N[N+](=O)[O-])CN1", "pKi": 4.77},
      {"smiles": "C[C@H](NC(=O)[C@H](CC(N)=O)NC(=O)[C@@H](N)CC(N)=O)C(=O)O", "note": "(H-Asn-Asn-Ala-OH)", "pKi": 5.37},
      {"smiles": "N=C(NCCC[C@H](N)C(=O)NC1CCNCC1)N[N+](=O)[O-]", "pKi": 3.69},
      {"smiles": "CN[C@@H](CCCNC(N)=N[N+](=O)[O-])C(=O)N[C@@H]1CCCNC1", "pKi": 3.62},
      {"smiles": "N=C(NCCC[C@H](N)C(=O)N[C@H]1CCCNC1)N[N+](=O)[O-]", "pKi": 3.27}
    ]},
    {"molecular_target": "T2, Nitric oxide synthase 3 (Bos taurus, UniProt P29473)", "T2 sequence (P29473 whole entry)": "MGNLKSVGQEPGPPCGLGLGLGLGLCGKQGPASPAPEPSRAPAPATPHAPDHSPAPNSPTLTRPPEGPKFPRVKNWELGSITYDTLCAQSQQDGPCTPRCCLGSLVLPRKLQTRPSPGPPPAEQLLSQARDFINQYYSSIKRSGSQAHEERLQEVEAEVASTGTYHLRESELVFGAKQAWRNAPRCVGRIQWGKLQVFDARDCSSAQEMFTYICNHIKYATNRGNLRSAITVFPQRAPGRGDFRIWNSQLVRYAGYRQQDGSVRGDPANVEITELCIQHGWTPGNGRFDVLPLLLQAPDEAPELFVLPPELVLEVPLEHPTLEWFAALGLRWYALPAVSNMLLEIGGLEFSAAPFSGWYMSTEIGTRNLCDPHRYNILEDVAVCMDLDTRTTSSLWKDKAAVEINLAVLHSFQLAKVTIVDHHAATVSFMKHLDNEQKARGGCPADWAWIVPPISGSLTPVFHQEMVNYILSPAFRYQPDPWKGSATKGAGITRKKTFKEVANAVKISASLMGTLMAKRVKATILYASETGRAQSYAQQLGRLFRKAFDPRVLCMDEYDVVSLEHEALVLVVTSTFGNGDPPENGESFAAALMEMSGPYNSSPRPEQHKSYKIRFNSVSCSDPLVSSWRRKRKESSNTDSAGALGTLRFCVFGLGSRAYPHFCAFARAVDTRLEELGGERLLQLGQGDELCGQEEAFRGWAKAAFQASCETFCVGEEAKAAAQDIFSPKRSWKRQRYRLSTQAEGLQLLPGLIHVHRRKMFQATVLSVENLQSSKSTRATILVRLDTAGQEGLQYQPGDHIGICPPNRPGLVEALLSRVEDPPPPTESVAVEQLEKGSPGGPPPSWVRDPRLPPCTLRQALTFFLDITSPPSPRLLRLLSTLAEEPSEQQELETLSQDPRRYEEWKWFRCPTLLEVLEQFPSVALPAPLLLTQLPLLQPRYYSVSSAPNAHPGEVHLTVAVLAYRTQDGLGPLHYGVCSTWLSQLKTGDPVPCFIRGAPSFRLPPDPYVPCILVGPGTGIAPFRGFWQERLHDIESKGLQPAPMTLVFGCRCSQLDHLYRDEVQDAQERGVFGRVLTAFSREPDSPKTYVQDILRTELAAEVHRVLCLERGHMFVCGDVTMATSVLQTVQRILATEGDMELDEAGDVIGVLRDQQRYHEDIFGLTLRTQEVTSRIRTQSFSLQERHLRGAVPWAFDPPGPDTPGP", "test": "Inhibition of bovine recombinant eNOS expressed in Escherichia coli assessed as nitric oxide production by hemoglobin capture assay", "values": [
      {"smiles": "NC(=N[N+](=O)[O-])NCCC[C@H](N)C(=O)N[C@@H]1CCNC1", "pKi": 4.17},
      {"smiles": "CN[C@@H](CCCNC(N)=N[N+](=O)[O-])C(=O)N[C@@H]1CCNC1", "pKi": 3.80},
      {"smiles": "CN[C@@H](CCCNC(=N)N[N+](=O)[O-])C(=O)N[C@H]1CN[C@H](C(N)=O)C1", "pKi": 3.54},
      {"smiles": "NC(=N[N+](=O)[O-])NCCC[C@H](N)C(=O)N[C@@H]1CCCNC1", "pKi": 3.65},
      {"smiles": "NC(=N[N+](=O)[O-])NCCC[C@H](N)C(=O)N[C@H]1CCNC1", "pKi": 4.11},
      {"smiles": "CN[C@@H](CCCNC(N)=N[N+](=O)[O-])C(=O)NC1CCNCC1", "pKi": 3.94},
      {"smiles": "C[C@H](NC(=O)[C@H](CC(N)=O)NC(=O)[C@@H](N)CC(N)=O)C(=O)O", "note": "(H-Asn-Asn-Ala-OH)", "pKi": 6.14},
      {"smiles": "N=C(NCCC[C@H](N)C(=O)NC1CCNCC1)N[N+](=O)[O-]", "pKi": 3.58},
      {"smiles": "CN[C@@H](CCCNC(N)=N[N+](=O)[O-])C(=O)N[C@@H]1CCCNC1", "pKi": 3.76},
      {"smiles": "N=C(NCCC[C@H](N)C(=O)N[C@H]1CCCNC1)N[N+](=O)[O-]", "pKi": 3.66}
    ]}
  ]
}
